Laboratory results as given in ChEMBL document CHEMBL1139760, “Studies on a series of potent, orally bioavailable, 5-HT(1) receptor ligands” (Bioorg Med Chem Lett, 2007).

Columns and labels:
[1] = target: T1, 5-hydroxytryptamine receptor 1A (Homo sapiens, UniProt P08908); assay: Displacement of [3H]WAY 100635 from human recombinant 5HT1A receptor expressed in CHO cells; type: cell-based
T1 sequence (P08908 whole entry): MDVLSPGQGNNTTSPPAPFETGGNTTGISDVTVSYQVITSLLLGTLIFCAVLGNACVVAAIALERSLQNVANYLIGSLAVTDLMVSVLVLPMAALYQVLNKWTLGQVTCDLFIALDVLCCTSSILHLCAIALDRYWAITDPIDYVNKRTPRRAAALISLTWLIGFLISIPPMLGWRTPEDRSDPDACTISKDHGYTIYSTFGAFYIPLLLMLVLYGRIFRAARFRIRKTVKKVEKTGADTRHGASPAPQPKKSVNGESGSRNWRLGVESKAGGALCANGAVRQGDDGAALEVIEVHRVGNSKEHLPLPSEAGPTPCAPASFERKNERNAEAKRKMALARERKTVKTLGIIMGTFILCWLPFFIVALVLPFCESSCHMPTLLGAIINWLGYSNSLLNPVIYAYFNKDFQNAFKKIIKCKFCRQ

[2] = target: T2, 5-hydroxytryptamine receptor 1A (Homo sapiens) (UniProt P08908); assay: Intrinsic activity at human recombinant 5HT1A receptor expressed in CHO cells by [35S]GTP-gamma-S binding assay relative to 5-hydroxytryptamine; type: functional, cell-based
T2 sequence (whole entry): T1 sequence (P08908 whole entry)

[3] = target: T3, 5-hydroxytryptamine receptor 1B (Homo sapiens, UniProt P28222); assay: Displacement of [3H]5-HT from human recombinant 5HT1B receptor expressed in CHO cells; type: cell-based
T3 sequence (P28222 whole entry): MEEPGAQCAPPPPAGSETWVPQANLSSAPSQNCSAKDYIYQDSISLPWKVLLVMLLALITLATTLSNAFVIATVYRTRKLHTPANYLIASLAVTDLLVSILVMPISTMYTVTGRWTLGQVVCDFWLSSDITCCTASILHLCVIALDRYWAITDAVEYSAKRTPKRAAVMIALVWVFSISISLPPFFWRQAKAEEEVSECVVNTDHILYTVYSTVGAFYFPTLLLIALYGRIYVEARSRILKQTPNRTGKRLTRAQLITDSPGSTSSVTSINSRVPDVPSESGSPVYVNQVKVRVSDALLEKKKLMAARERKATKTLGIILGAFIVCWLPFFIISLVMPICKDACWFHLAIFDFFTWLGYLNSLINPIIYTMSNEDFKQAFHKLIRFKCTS

[4] = target: T3, 5-hydroxytryptamine receptor 1B; assay: Intrinsic activity at human recombinant 5HT1B receptor expressed in CHO cells by [35S]GTP-gamma-S binding assay relative to 5-hydroxytryptamine; type: functional, cell-based
[5] = target: T4, 5-hydroxytryptamine receptor 1D (Homo sapiens, UniProt P28221); assay: Displacement of [3H]5-HT from human recombinant 5HT1D receptor expressed in CHO cells; type: cell-based
T4 sequence (P28221 whole entry): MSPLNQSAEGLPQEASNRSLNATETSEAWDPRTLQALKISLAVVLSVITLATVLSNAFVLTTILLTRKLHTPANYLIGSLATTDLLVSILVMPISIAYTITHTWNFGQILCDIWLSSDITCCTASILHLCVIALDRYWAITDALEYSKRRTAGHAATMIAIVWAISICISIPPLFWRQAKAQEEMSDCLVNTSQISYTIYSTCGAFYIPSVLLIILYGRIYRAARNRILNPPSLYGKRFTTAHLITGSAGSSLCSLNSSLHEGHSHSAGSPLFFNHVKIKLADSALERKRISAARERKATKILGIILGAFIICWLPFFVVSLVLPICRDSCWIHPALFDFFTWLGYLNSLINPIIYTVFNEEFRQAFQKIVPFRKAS

[6] = target: T4, 5-hydroxytryptamine receptor 1D; assay: Intrinsic activity at human recombinant 5HT1D receptor expressed in CHO cells by [35S]GTP-gamma-S binding assay relative to 5-hydroxytryptamine; type: functional, cell-based
[7] = target: T5, Cytochrome P450 1A2 (Homo sapiens, UniProt P05177); assay: Inhibition of CYP1A2; type: ADME
T5 sequence (P05177 whole entry): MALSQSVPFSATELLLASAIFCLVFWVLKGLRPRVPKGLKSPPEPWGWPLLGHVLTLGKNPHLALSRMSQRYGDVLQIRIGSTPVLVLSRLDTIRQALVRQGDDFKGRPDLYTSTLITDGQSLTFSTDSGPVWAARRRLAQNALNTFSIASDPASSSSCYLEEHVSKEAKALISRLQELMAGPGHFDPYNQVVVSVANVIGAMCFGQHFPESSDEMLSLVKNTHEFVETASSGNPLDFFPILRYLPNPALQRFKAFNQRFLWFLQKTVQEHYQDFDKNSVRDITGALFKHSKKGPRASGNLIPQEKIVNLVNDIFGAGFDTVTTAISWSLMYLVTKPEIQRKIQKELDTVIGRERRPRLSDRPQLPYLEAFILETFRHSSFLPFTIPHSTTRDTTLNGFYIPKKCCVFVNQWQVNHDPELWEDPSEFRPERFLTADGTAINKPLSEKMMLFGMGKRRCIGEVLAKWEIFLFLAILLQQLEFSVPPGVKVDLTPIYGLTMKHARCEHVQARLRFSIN

[8] = target: Cytochrome P450 2C9 (Homo sapiens, UniProt P11712); assay: Inhibition of CYP2C9; type: ADME
Cytochrome P450 2C9, sequence (P11712 whole entry): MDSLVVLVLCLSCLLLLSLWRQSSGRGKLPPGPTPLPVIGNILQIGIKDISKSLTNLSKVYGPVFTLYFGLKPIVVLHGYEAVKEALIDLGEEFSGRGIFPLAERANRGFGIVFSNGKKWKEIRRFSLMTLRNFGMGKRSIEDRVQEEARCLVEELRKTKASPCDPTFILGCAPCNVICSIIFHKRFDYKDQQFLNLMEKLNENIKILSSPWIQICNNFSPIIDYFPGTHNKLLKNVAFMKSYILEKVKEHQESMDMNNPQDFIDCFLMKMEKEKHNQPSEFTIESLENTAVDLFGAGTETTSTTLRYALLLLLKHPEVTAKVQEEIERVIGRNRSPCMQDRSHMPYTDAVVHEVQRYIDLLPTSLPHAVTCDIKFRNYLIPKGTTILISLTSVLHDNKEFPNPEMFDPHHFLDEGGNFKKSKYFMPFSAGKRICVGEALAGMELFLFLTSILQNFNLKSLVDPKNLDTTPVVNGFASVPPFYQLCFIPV

[9] = target: Sodium-dependent serotonin transporter (Rattus norvegicus, UniProt P31652)
Sodium-dependent serotonin transporter, sequence (P31652 whole entry): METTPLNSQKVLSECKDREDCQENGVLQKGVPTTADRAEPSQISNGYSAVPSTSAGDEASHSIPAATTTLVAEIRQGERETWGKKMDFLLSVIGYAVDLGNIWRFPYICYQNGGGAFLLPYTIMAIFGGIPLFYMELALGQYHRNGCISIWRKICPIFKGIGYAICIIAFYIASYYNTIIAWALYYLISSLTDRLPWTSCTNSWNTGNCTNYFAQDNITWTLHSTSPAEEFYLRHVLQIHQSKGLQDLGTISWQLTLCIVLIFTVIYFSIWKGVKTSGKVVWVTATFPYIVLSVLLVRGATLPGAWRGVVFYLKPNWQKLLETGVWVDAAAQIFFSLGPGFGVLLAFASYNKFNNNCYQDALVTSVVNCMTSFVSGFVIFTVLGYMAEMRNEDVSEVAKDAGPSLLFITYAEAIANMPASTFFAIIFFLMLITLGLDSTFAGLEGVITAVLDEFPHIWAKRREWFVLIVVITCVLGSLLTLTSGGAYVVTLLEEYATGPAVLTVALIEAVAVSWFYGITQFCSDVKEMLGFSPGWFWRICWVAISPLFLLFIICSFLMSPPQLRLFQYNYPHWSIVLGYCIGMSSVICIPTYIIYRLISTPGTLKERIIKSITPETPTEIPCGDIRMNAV
Description: Inhibition of [3H]5-HT uptake at SERT in rat cortical synaptosomes

[10] = target: T1, 5-hydroxytryptamine receptor 1A; assay: Displacement of [3H]-WAY100635 from human recombinant 5HT1A receptor expressed in CHO cells
[11] = target: Cytochrome P450 3A4 (Homo sapiens, UniProt P08684); assay: Inhibition of CYP3A4; type: ADME
Cytochrome P450 3A4, sequence (P08684 whole entry): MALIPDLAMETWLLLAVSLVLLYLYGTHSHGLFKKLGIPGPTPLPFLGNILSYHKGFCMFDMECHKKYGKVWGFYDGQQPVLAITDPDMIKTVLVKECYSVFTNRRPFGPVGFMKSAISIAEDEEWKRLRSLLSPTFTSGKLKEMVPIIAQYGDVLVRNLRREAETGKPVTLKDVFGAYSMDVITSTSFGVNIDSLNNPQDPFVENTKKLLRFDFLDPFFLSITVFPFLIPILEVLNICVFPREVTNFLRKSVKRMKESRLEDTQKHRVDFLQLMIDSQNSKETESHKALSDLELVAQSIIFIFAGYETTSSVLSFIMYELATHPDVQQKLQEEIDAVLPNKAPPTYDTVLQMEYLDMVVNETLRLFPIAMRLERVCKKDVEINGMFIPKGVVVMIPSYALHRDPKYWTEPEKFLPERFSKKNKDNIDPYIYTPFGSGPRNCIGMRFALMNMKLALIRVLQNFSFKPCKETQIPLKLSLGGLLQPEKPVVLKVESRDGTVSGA

[12] = target: Cytochrome P450 2C19 (Homo sapiens, UniProt P33261); assay: Inhibition of CYP2C19; type: ADME
Cytochrome P450 2C19, sequence (P33261 whole entry): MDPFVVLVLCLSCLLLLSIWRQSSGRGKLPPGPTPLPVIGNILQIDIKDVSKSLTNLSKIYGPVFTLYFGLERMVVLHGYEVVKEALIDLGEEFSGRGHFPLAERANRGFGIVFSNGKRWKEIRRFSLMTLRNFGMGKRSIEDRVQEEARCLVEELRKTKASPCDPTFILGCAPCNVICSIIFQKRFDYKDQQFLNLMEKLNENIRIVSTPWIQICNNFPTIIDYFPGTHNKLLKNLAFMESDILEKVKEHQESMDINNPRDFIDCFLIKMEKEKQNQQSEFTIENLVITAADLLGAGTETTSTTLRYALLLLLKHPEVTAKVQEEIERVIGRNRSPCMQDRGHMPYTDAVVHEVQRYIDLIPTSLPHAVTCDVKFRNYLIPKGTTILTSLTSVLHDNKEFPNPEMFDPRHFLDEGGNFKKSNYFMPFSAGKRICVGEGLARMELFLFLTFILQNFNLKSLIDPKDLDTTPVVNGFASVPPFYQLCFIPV

[13] = target: Cytochrome P450 2D6 (Homo sapiens, UniProt P10635); assay: Inhibition of CYP2D6; type: ADME
Cytochrome P450 2D6, sequence (P10635 whole entry): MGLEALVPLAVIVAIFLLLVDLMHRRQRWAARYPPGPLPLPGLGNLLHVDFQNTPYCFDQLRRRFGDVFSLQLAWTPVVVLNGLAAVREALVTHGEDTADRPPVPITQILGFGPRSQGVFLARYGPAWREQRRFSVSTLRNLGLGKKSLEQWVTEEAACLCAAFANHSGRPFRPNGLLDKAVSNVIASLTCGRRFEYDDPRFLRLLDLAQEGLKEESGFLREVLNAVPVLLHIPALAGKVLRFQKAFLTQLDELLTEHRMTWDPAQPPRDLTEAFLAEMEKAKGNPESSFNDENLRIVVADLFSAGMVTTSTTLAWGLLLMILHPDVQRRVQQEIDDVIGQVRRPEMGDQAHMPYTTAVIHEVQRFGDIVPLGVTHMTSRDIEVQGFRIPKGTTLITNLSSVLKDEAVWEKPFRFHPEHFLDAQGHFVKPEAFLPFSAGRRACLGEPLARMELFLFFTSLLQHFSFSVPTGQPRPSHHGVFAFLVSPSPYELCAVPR

[14] = Clearance in rat blood at 1 mg/kg, iv; type: ADME, organism-based; parameters: dose 1 mg/kg, route intravenous
[15] = Half life in rat at 1 mg/kg, iv; type: ADME, organism-based; parameters: dose 1 mg/kg, route intravenous; details: in vivo
[16] = Oral bioavailability in rat at 3 mg/kg; type: ADME, organism-based; details: in vivo
[17] = Ratio of drug level in brain to blood in rat at 3 mg/kg, po; type: ADME, organism-based; parameters: dose 3 mg/kg, route oral
[18] = tested on: Liver microsomes; assay: Metabolic stability assessed as intrinsic clearance in rat liver microsomes; type: ADME, Microsome
[19] = tested on: Liver microsomes; assay: Metabolic stability assessed as intrinsic clearance in human liver microsomes; type: ADME, Microsome
[20] = Volume of distribution at steady state in rat at 1 mg/kg, iv; type: ADME, organism-based; parameters: dose 1 mg/kg, route intravenous; details: in vivo, read-out: Vdss
[21] = Selectivity for human recombinant 5HT1A receptor over rat cortical SERT
[22] = Selectivity for human recombinant 5HT1B receptor over rat cortical SERT
[23] = Selectivity for human recombinant 5HT1D receptor over rat cortical SERT

Row | Compound | Ki [1] [nM] | Intrinsic activity [2] | Ki [3] [nM] | Intrinsic activity [4] | Ki [5] [nM] | Intrinsic activity [6] | IC50 [7] [nM] | IC50 [8] [nM] | Ki [9] [nM] | Ki [10] [nM] | IC50 [11] [nM] | IC50 [12] [nM] | IC50 [13] [nM] | clearance [14] [mL/min/kg] | half-life [15] [h] | further results
1 | CCN1C(=O)COc2ccc(CN3CCN(CCOc4cccc5nc(C)ccc45)CC3)cc21 | 39.8 | 0.1 | 25.1 | 0.4 | 1 | 0.3 | 18000 | 14000 | 2000 | 1.26 |  |  |  |  |  | 
2 | Cc1ccc2c(OCCN3CCN(Cc4ccc5c(c4F)N(C)C(=O)CO5)CC3)cccc2n1 | 3.16 | 0 | 1.58 | 0.4 | 0.501 | 0.6 | > 16000 | > 16000 | 79.4 |  | > 16000 | > 16000 | > 16000 | 34 | 2 | bioavailability [16]: 65%; Kp [17]: 2.7
3 | CCN1C(=O)COc2ccc(CN3CCN(CCOc4cccc5nc(C)ccc45)CC3)c(F)c21 | 2.51 | 0.1 | 1.58 | 0.5 | 1.26 | 0.7 | > 9000 | > 9000 | 200 |  | > 9000 | > 9000 | > 9000 | 23 | 2.8 | bioavailability [16]: 34%; Kp [17]: 1.2
4 | Cc1ccc2c(OCCN3CCN(Cc4ccc5c(c4)N(CC(C)C)C(=O)CO5)CC3)cccc2n1 |  |  | 31.6 |  | 2.51 |  |  |  | 1580 | 2 |  |  |  |  |  | 
5 | COc1ccc(NC(=O)c2ccc(-c3ccc(-c4noc(C)n4)cc3C)cc2)cc1N1CCN(C)CC1 |  |  |  | 0.3 |  | 0.8 |  |  |  |  |  |  |  |  |  | 
6 | CCN1C(=O)COc2ccc(CC3CCN(CCOc4cccc5nc(C)ccc45)CC3)cc21 | 3.16 | 0.1 | 3.98 | 0.4 | 1.58 | 0.6 |  |  | 126 | 0.251 |  |  |  | 31 | 1.6 | CL [18]: 7.7 mL/min/g; CL [19]: 2.8 mL/min/g; Vd [20]: 2.5 L/kg; Ratio pKi [21]: 30; Ratio pKi [22]: 30; Ratio pKi [23]: 30
7 | CCCN1C(=O)COc2ccc(CN3CCN(CCOc4cccc5nc(C)ccc45)CC3)cc21 | 25.1 | 0.1 | 31.6 | 0.4 | 2 | 0.5 |  | 18000 | 158 | 0.251 |  |  |  |  |  | 
8 | Cc1ccc2c(OCCN3CCN(Cc4cc(F)c5c(c4)N(C)C(=O)CO5)CC3)cccc2n1 | 7.94 | 0 | 0.2 | 0.7 | 0.398 | 0.6 | > 19000 | > 19000 | 50.1 |  | > 19000 | > 19000 | > 19000 | 14 | 1.3 | Kp [17]: 3.6
9 | CCCCN1C(=O)COc2ccc(CN3CCN(CCOc4cccc5nc(C)ccc45)CC3)cc21 |  |  | 31.6 |  | 3.16 |  | 4000 | 12000 | 158 | 1.26 |  | 16000 |  |  |  | 
10 | Cc1ccc2c(OCCN3CCN(Cc4ccc5c(c4)N(C)C(=O)CO5)CC3)cccc2n1 | 10 | 0 | 7.94 | 0.8 | 0.501 |  | > 20000 | > 20000 | 100 | 1.58 | > 20000 | > 20000 | > 20000 |  |  | 
11 | Cc1ccc2c(OCCN3CCN(Cc4ccc5c(c4)NC(=O)CO5)CC3)cccc2n1 | 63.1 | 0 | 100 | 0.6 | 10 |  |  |  | 25.1 | 1.58 |  |  |  |  |  | 
12 | Cc1ccc2c(OCCN3CCC(Cc4ccc5c(c4)NC(=O)CO5)CC3)cccc2n1 |  | 0.1 |  | 0.5 |  | 0.5 |  |  |  |  |  |  |  | 50 | 1.3 | CL [18]: 3.4 mL/min/g; CL [19]: 1.2 mL/min/g; Vd [20]: 4.4 L/kg; bioavailability [16]: 40%
13 | Cc1ccc2c(OCCN3CCC(Cc4ccc5c(c4)N(C(C)C)C(=O)CO5)CC3)cccc2n1 | 5.01 | 0 | 39.8 | 0.6 | 3.98 |  |  |  | 100 | 0.631 |  |  |  |  |  | 
14 | Cc1ccc2c(OCCN3CCN(Cc4ccc5c(c4)N(Cc4ccccc4)C(=O)CO5)CC3)cccc2n1 |  |  | 63.1 |  | 6.31 |  | 11000 | 7000 | 316 | 3.98 | 12000 | 11000 | 15000 |  |  | 
15 | Cc1ccc2c(OCCN3CCN(Cc4ccc5c(c4)N(CCc4ccccc4)C(=O)CO5)CC3)cccc2n1 | 31.6 |  | 25.1 |  | 2 |  | 17000 | 4000 |  | 1.26 | 9000 | 5000 | 14000 |  |  | 
